The data set concerns rodent lifetime carcinogenesis bioassay, tumor incidence TD50. The data set can be described thus: chronic cancer bioassays in animals – CPDB, compiled studies (AID 1745844).

As a reminder, the TD50 is the 50% point of the dose-response relation for the toxic effect studied.

Molecules are shown by their SMILES. Calls of active or inactive are those of the source. No rule for the calls is given here.

`C1COCCO1`: the TD50 was 847 mg/kg/day (mouse, strain B6C3F1, females, in drinking water, site: any site (literature study), lesion: several types, types named in the paper, dosed 90 weeks, study length 90 weeks); 594 mg/kg/day (mouse, strain B6C3F1, females, in drinking water, site: liver, lesion: hepatocellular adenoma + hepatocellular carcinoma + neoplastic nodule, dosed 90 weeks, study length 90 weeks); 594 mg/kg/day (mouse, strain B6C3F1, females, in drinking water, site: liver, lesion: hepatocellular adenoma + hepatocellular carcinoma, dosed 90 weeks, study length 90 weeks); 938 mg/kg/day (mouse, strain B6C3F1, females, in drinking water, site: liver, lesion: hepatocellular carcinoma, dosed 90 weeks, study length 90 weeks); 71900 mg/kg/day (mouse, strain B6C3F1, females, in drinking water, site: lung, lesion: alveolar/bronchiolar adenoma + alveolar/bronchiolar carcinoma, dosed 90 weeks, study length 90 weeks); 3150 mg/kg/day (mouse, strain B6C3F1, males, in drinking water, site: all sites, lesion: hemangioma + hemangiosarcoma, dosed 90 weeks, study length 91 weeks). Besides, the TD50 by setting is: (mouse, strain B6C3F1, males, in drinking water, site: all sites, lesion: lymphoma, dosed 90 weeks, study length 91 weeks) 3930 mg/kg/day; (mouse, strain B6C3F1, males, in drinking water, site: any site (literature study), lesion: several types, types named in the paper, dosed 90 weeks, study length 91 weeks) 1880 mg/kg/day; (mouse, strain B6C3F1, males, in drinking water, site: liver, lesion: hepatocellular adenoma + hepatocellular carcinoma + neoplastic nodule, dosed 90 weeks, study length 91 weeks) 1460 mg/kg/day; (mouse, strain B6C3F1, males, in drinking water, site: liver, lesion: hepatocellular adenoma + hepatocellular carcinoma, dosed 90 weeks, study length 91 weeks) 1460 mg/kg/day; (mouse, strain B6C3F1, males, in drinking water, site: liver, lesion: hepatocellular carcinoma, dosed 90 weeks, study length 91 weeks) 1420 mg/kg/day; (mouse, strain BDF1, females, in drinking water, site: liver, lesion: hepatocellular adenoma, dosed 104 weeks, study length 105 weeks) 83.1 mg/kg/day. The TD50 runs as follows: (mouse, strain BDF1, females, in drinking water, site: liver, lesion: hepatocellular carcinoma, dosed 104 weeks, study length 105 weeks) 404 mg/kg/day; (mouse, strain BDF1, females, in drinking water, site: liver, lesion: several types, types named in the paper, dosed 104 weeks, study length 105 weeks) 65.5 mg/kg/day; (mouse, strain BDF1, females, in drinking water, site: nasal cavity, lesion: adenocarcinoma, dosed 104 weeks, study length 105 weeks) 72100 mg/kg/day; (mouse, strain BDF1, males, in drinking water, site: liver, lesion: hepatocellular adenoma, dosed 104 weeks, study length 105 weeks) 519 mg/kg/day; (mouse, strain BDF1, males, in drinking water, site: liver, lesion: hepatocellular carcinoma, dosed 104 weeks, study length 105 weeks) 1040 mg/kg/day; (mouse, strain BDF1, males, in drinking water, site: liver, lesion: several types, types named in the paper, dosed 104 weeks, study length 105 weeks) 982 mg/kg/day. In addition, the TD50 reads like this: (mouse, strain BDF1, males, in drinking water, site: nasal cavity, lesion: esthesioneuroepithelioma, dosed 104 weeks, study length 105 weeks) 60100 mg/kg/day; (rat, strain Charles River CD (Sprague-Dawley), males, in drinking water, site: nasal cavity, lesion: squamous-cell carcinoma, dosed 56 weeks, study length 69 weeks) 2950 mg/kg/day; (rat, strain F344/DuCrj, females, in drinking water, site: liver, lesion: hepatocellular adenoma, dosed 104 weeks, study length 105 weeks) 182 mg/kg/day; (rat, strain F344/DuCrj, females, in drinking water, site: liver, lesion: hepatocellular carcinoma, dosed 104 weeks, study length 105 weeks) 1120 mg/kg/day; (rat, strain F344/DuCrj, females, in drinking water, site: liver, lesion: several types, types named in the paper, dosed 104 weeks, study length 105 weeks) 167 mg/kg/day; (rat, strain F344/DuCrj, females, in drinking water, site: mammary gland, lesion: adenoma, dosed 104 weeks, study length 105 weeks) 772 mg/kg/day. Further, the TD50 reads like this: (rat, strain F344/DuCrj, females, in drinking water, site: nasal cavity, lesion: esthesioneuroepithelioma, dosed 104 weeks, study length 105 weeks) 12200 mg/kg/day; (rat, strain F344/DuCrj, females, in drinking water, site: nasal cavity, lesion: malignant tumor, dosed 104 weeks, study length 105 weeks) 1430 mg/kg/day; (rat, strain F344/DuCrj, females, in drinking water, site: nasal cavity, lesion: squamous-cell carcinoma, dosed 104 weeks, study length 105 weeks) 1650 mg/kg/day; (rat, strain F344/DuCrj, males, in drinking water, site: liver, lesion: hepatocellular adenoma, dosed 104 weeks, study length 105 weeks) 279 mg/kg/day; (rat, strain F344/DuCrj, males, in drinking water, site: liver, lesion: hepatocellular carcinoma, dosed 104 weeks, study length 105 weeks) 676 mg/kg/day; (rat, strain F344/DuCrj, males, in drinking water, site: liver, lesion: several types, types named in the paper, dosed 104 weeks, study length 105 weeks) 189 mg/kg/day. Moreover, the TD50 is, setting by setting: (rat, strain F344/DuCrj, males, in drinking water, site: mammary gland, lesion: fibroadenoma, dosed 104 weeks, study length 105 weeks) 3070 mg/kg/day; (rat, strain F344/DuCrj, males, in drinking water, site: nasal cavity, lesion: esthesioneuroepithelioma, dosed 104 weeks, study length 105 weeks) 10600 mg/kg/day; (rat, strain F344/DuCrj, males, in drinking water, site: nasal cavity, lesion: malignant tumor, dosed 104 weeks, study length 105 weeks) 1440 mg/kg/day; (rat, strain F344/DuCrj, males, in drinking water, site: nasal cavity, lesion: rhabdomyosarcoma, dosed 104 weeks, study length 105 weeks) 10600 mg/kg/day; (rat, strain F344/DuCrj, males, in drinking water, site: nasal cavity, lesion: sarcoma, NOS, dosed 104 weeks, study length 105 weeks) 5270 mg/kg/day; (rat, strain F344/DuCrj, males, in drinking water, site: nasal cavity, lesion: squamous-cell carcinoma, dosed 104 weeks, study length 105 weeks) 3490 mg/kg/day. The TD50 runs as follows: (rat, strain F344/DuCrj, males, in drinking water, site: peritoneum, lesion: mesothelioma, dosed 104 weeks, study length 105 weeks) 246 mg/kg/day; (rat, strain F344/DuCrj, males, in drinking water, site: subcutaneous tissue, lesion: fibroma, dosed 104 weeks, study length 105 weeks) 922 mg/kg/day; (rat, strain Osborne-Mendel, females, in drinking water, site: any site (literature study), lesion: several types, types named in the paper, dosed 110 weeks, study length 111 weeks) 40.5 mg/kg/day; (rat, strain Osborne-Mendel, females, in drinking water, site: liver + nasal turbinate, lesion: hepatocellular adenoma + squamous-cell carcinoma, dosed 110 weeks, study length 111 weeks) 126 mg/kg/day; (rat, strain Osborne-Mendel, females, in drinking water, site: liver, lesion: hepatocellular adenoma + hepatocellular carcinoma + neoplastic nodule, dosed 110 weeks, study length 111 weeks) 124 mg/kg/day; (rat, strain Osborne-Mendel, females, in drinking water, site: liver, lesion: hepatocellular adenoma, dosed 110 weeks, study length 111 weeks) 160 mg/kg/day. For the same compound, the TD50 was 476 mg/kg/day (rat, strain Osborne-Mendel, females, in drinking water, site: nasal turbinate, lesion: squamous-cell carcinoma, dosed 110 weeks, study length 111 weeks); 114 mg/kg/day (rat, strain Osborne-Mendel, males, in drinking water, site: any site (literature study), lesion: several types, types named in the paper, dosed 110 weeks, study length 110 weeks); 796 mg/kg/day (rat, strain Osborne-Mendel, males, in drinking water, site: liver, lesion: hepatocellular adenoma + hepatocellular carcinoma + neoplastic nodule, dosed 110 weeks, study length 110 weeks); 168 mg/kg/day (rat, strain Osborne-Mendel, males, in drinking water, site: nasal turbinate, lesion: squamous-cell carcinoma, dosed 110 weeks, study length 110 weeks); 2500 mg/kg/day (rat, strain Sherman, both sexes, in drinking water, site: liver, lesion: hepatocellular carcinoma, dosed 104 weeks, study length 104 weeks); 2120 mg/kg/day (rat, strain Sherman, both sexes, in drinking water, site: liver, lesion: several types, types named in the paper, dosed 104 weeks, study length 104 weeks). For the same compound, the TD50 reads like this: (rat, strain Sherman, both sexes, in drinking water, site: nasal turbinate, lesion: squamous-cell carcinoma, dosed 104 weeks, study length 104 weeks) 15900 mg/kg/day; (rat, strain Wistar, both sexes, in drinking water, site: any site (literature study), lesion: several types, types named in the paper, dosed 63 weeks, study length 64 weeks) 690 mg/kg/day; (rat, strain Wistar, both sexes, in drinking water, site: liver, lesion: hepatoma, dosed 63 weeks, study length 64 weeks) 515 mg/kg/day.
With `Nc1ccccc1-c1ccccc1`, the TD50 is 1120 mg/kg/day (mouse, strain B6C3F1, females, in feed, site: all sites, lesion: angiosarcoma + hemangioma, dosed 103 weeks, study length 104 weeks); 1280 mg/kg/day (mouse, strain B6C3F1, females, in feed, site: all sites, lesion: angiosarcoma, dosed 103 weeks, study length 104 weeks); 1880 mg/kg/day (mouse, strain B6C3F1, females, in feed, site: any site (literature study), lesion: several types, types named in the paper, dosed 103 weeks, study length 104 weeks); 2000 mg/kg/day (mouse, strain B6C3F1, females, in feed, site: liver, lesion: hepatocellular adenoma + hepatocellular carcinoma + neoplastic nodule, dosed 103 weeks, study length 104 weeks); 26100 mg/kg/day (mouse, strain B6C3F1, females, in feed, site: lung, lesion: alveolar/bronchiolar adenoma + alveolar/bronchiolar carcinoma, dosed 103 weeks, study length 104 weeks); 1250 mg/kg/day (mouse, strain B6C3F1, males, in feed, site: all sites, lesion: angiosarcoma + hemangioma + hemangiosarcoma, dosed 103 weeks, study length 104 weeks). The TD50 (mouse, strain B6C3F1, males, in feed, site: all sites, lesion: angiosarcoma + hemangiosarcoma, dosed 103 weeks, study length 104 weeks) was 1810 mg/kg/day; the TD50 (mouse, strain B6C3F1, males, in feed, site: any site (literature study), lesion: several types, types named in the paper, dosed 103 weeks, study length 104 weeks) came to 720 mg/kg/day; the TD50 (mouse, strain B6C3F1, males, in feed, site: liver, lesion: hepatocellular adenoma + hepatocellular carcinoma + neoplastic nodule, dosed 103 weeks, study length 104 weeks) was 1700 mg/kg/day; the TD50 (rat, strain Fischer 344, females, in feed, site: liver, lesion: hepatocellular adenoma + hepatocellular carcinoma + neoplastic nodule, dosed 103 weeks, study length 105 weeks) was 363 mg/kg/day. Besides, the carcinogen call runs as follows: (rat, strain Fischer 344, females, in feed, site: any site (literature study), lesion: several types, types named in the paper, dosed 103 weeks, study length 105 weeks) “negative (inactive)”; (rat, strain Fischer 344, males, in feed, site: any site (literature study), lesion: several types, types named in the paper, dosed 103 weeks, study length 104 weeks) “negative (inactive)”.
For the compound `COc1nn(CSP(=S)(OC)OC)c(=O)s1`, the carcinogen call (mouse, strain Charles River CD1, females, in feed, site: liver, lesion: hepatocellular adenoma, dosed 100 weeks, study length 100 weeks) is “negative (inactive)”. In addition, the TD50 is, setting by setting: (mouse, strain Charles River CD1, females, in feed, site: liver, lesion: hepatocellular carcinoma, dosed 100 weeks, study length 100 weeks) 184 mg/kg/day (inactive); (mouse, strain Charles River CD1, females, in feed, site: liver, lesion: several types, types named in the paper, dosed 100 weeks, study length 100 weeks) 16200 mg/kg/day (inactive); (mouse, strain Charles River CD1, males, in feed, site: liver, lesion: hepatocellular adenoma, dosed 100 weeks, study length 100 weeks) 17.2 mg/kg/day; (mouse, strain Charles River CD1, males, in feed, site: liver, lesion: hepatocellular carcinoma, dosed 100 weeks, study length 100 weeks) 21.8 mg/kg/day; (mouse, strain Charles River CD1, males, in feed, site: liver, lesion: several types, types named in the paper, dosed 100 weeks, study length 100 weeks) 6.04 mg/kg/day.
Turning to `O=C(O)c1ccc(O)c(O)c1`, the carcinogen call (hamster, strain Syrian Golden, females, in feed, site: liver, lesion: one or several types, types not named, dosed 49 weeks, study length 52 weeks) is “negative (inactive)” and the carcinogen call (hamster, strain Syrian Golden, females, in feed, site: lung, lesion: one or several types, types not named, dosed 49 weeks, study length 52 weeks) is “negative (inactive)”.
